According to patent US10676538B2, “Inhibitors of Staphylococcus pseudintermedius sortase” (priority 2017, dated 2020):
Like-named read-outs stand apart in the source and are kept apart here.

What was measured:
[1] = tested on: S. pseudintermedius isolates; experiment: flow cytometry of cell wall-associated Protein A on bacteria grown with inhibitor (indirect SrtA inhibition); format: cell-based, Staphylococcus pseudintermedius; settings: compared to control without inhibitor
Method: FIG. 4: […] bacterial isolates 08-3228, 08-1661, NA12, NA16 and NA45 were grown in the presence of inhibitor 1847 until exponential log phase. S. pseudintermedius recombinant SrtA inhibition was measured indirectly by determining the density of cell wall associated Protein A (one of the LPXTG proteins targeted by SrtA) using flow cytometry. Protein A was detected with FITC conjugated chicken anti-protein A (Gallus immunotech, Cary, N.C.). The values represent average from three independent experiments with the standard deviations shown at the top of each bar.
Inhibition of SrtA in bacterial cells was measured indirectly by measuring the decrease in the amount of Protein A on the bacterial surface using flow cytometry. Five representative S. pseudintermedius isolates were tested. […] Isolate NA45 was not affected by compound 1847.

Sortase A = settings: 10 μM SrtA, 4 μM inhibitor
[2] = tested on: S. pseudintermedius recombinant SrtA; experiment: in vitro FRET-based functional assay of recombinant SrtA; format: biochemical, Staphylococcus pseudintermedius; settings: compared to buffer controls, averages from three independent experiments
Method: Compounds predicted to bind to the active site were identified. Initially, from the 200 highest ranked compounds, twenty were selected. […] The assay to determine the functional activity of recombinant SrtA and its inhibition was performed in 96-well black microtiter plates with clear bottom (Corning, Fisher Scientific, Hampton, N.H.) in a final reaction volume of 200 μl. Fluorescent-quenched bacterial sortase substrate III, Abz/DNP (Abz-LPETG-K(Dnp)-NH2 (GenScript Inc., Piscataway, N.J.) dissolved in isopropanol was used for Km determination. Varying concentrations of the substrate (2.5 μM-200 μM) were incubated at 25° C. with 1 μM of SrtA diluted in assay buffer (50 mM Tris-HCl, 150 mM NaCl, 5 mM CaCl2, and 0.1% Triton X-100, pH 7.5). The increase in fluorescence was measured in a kinetic assay for 20 min at 2 min intervals using a Synergy HTX multimode reader (BioTek, Winooski, Vt.) at wavelengths 320 excitation/420 emission. The initial velocity V0 was determined from the linear portion of the curve and the Km was determined using the Michaelis-Menten equation where V=Vmax[S]/([S]+Km). To measure the effect of inhibitors recombinant SrtA was pre-incubated with varying amounts of the inhibitor at […] and subjected to the same FRET assay.

For `O=S(=O)(O)c1ccc(N=Nc2ccccc2)cc1` [Compound 1847], the “reduction in the density of cell wall-associated Protein A” value (shortened to “reduction in the density”) ([1]; isolate 06-3228) was 38.7%, the “reduction in the density” value ([1]; isolate 08-1661) was 74.3% and the “reduction in the density” value ([1]; isolate NA12) was 42.8%. For the same compound, the “reduction in the density” value ([1]; isolate NA16) was 89.4%, the “reduction in the density” value ([1]; isolate NA45) was “not affected” and the “melting temperature of 1847-stabilized Sortase A” value (Sortase A; Srt A in His-Tag elution buffer) was 86.56 °C. The “melting temperature of 1847-stabilized Sortase A” value (Sortase A; Srt A in PBS) was 86.81 °C and the “inhibition of SrtA” value [2] was 50-80%.

For `C[N+](C)(C)CCSS(C)(=O)=O.[Br-]` [MTSET, reference compound], the “inhibition of SrtA” value [2] was 57.5%.

With `N#Cc1ccc(NS(=O)(=O)Cc2ccccc2)cc1` [STK022091] the “inhibition of SrtA” value [2] was “did not have any detectable inhibitory effect” and the “inhibition of SrtA” value ([2]; listed as SKT022091) was “did not have inhibitory effect”.

For `COc1ccc(N2CCN(S(=O)(=O)Cc3ccc(F)cc3)CC2)cc1` [STL223442], the “inhibition of SrtA” value [2] was 13.75%.
